≈ marks a conversion by molar mass, not a printed value. Where a name gives a salt, the structure may show the parent alone. Read-outs that look alike come from different tables or passages of the source.
System: PAF-induced platelet aggregation
Assay: Inhibitory effect on PAF-induced platelet aggregation in rabbits (in vitro test)
Assay type: cell-based
Details: Oryctolagus cuniculus, read-out: Inhibition of PAF-induced platelet aggregation IC50
Protocol: Experiment 1: Inhibitory effect on platelet aggregation in rabbits (in vitro test)
Blood samples to which was added 1/10 volume of 3.8% sodium citrate solution were collected from rabbits. Platelet rich plasma (PRP) was prepared by centrifuging the blood sample at 200×g for 10 minutes, and platelet poor plasma (PPP) was prepared by centrifuging the remaining blood sample at 1000× g for 10 minutes.
Aggregation ability was measured with a turbidimetric device (6-channel NKK Hematracer 1, model PAT-6A) according to the method of G.V.R. Born described in J. Physiology, vol. 168, p. 178 (1963). The aggregometer was adjusted in sensitivity to give light transmission values of 0 and 100% for PRP and PPP, respectively. With stirring at 1000 rpm, 0.3 μl of test compound solution or solvent was added to 0.3 ml of PRP. After the mixture was kept at 37° C. for 2 minutes, to the mixture was added 3 μl synthetic PAF at the final concentration of 1.8×10^-7 M and the light transmission was recorded for 5 minutes.
The inhibition percentage of test compounds on platelet aggregation was calculated from the following formula by measuring the maximal light transmission in the presence and absence of the test compounds. [formula]
IC50 (μg/ml, concentration of 50% inhibition) was graphically determined.

SMILES	IC50 (Platelet) [µg/mL]	IC50 (rabbit platelet rich plasma, 37° C., PAF final concentration 1.8×10^-7 M) [µg/mL]
CCc1cc2c(s1)-n1c(C)nnc1CN=C2c1ccccc1Cl [Etizolam, 6-(o-chlorophenyl)-8-ethyl-1-methyl-4H-s-triazolo [3,4c]thieno[2,3-e][1,4]diazepine, reference compound]	1.3 (≈ 3.79 µM)	–
Cc1nnc2n1-c1sc(C(C)OC(=O)C(C)c3ccc(CC(C)C)cc3)cc1C(c1ccccc1Cl)=NC2 (centres unmarked) [Example 2, 2-(1-(2-(4-iso-butylphenyl)propionyl)oxyethyl)-4-(2-chlorophenyl)-9-methyl-6H-thieno[3,2-f][1,2,4]triazolo[4,3-a][1,4]diazepine]	0.01 to 0.03 (≈ 0.0183 to 0.0548 µM)	–
Cc1ccccc1C1=NCc2nnc(C)n2-c2sc(C(C)OC(=O)C(C)c3ccc(CC(C)C)cc3)cc21 (centres unmarked) [Example 4, 2-(1-(2-(4-isobutylphenyl)propionyl)oxyethyl)-4-(2-methylphenyl)-9-methyl-6H-thieno[3,2-f][1,2,4]triazolo[4,3-a][1,4]diazepine]	–	0.03 to 0.1 (≈ 0.057 to 0.19 µM)
Cc1nnc2n1-c1sc(C(C)OC(=O)c3ccccc3)cc1C(c1ccccc1Cl)=NC2 (centres unmarked) [Example 13, 2-(1-benzoyloxyethyl)-4-(2-chlorophenyl)-9-methyl-6H-thieno[3,2-f][1,2,4]triazolo[4,3-a][1,4]diazepine.hydrochloride]	0.1 to 0.3	–
Cc1nnc2n1-c1sc(C(C)OC(=O)C(C)(C)C)cc1C(c1ccccc1Cl)=NC2 (centres unmarked) [Example 14, 4-(2-chlorophenyl)-9-methyl-2(1-pivaloyloxyethyl)-6H-thieno[3,2-f][1,2,4]triazolo[4,3-a][1,4]diazepine]	0.2 (≈ 0.451 µM)	–
